Data from patent US6548528B2, “Pesticidal pyrazoles and derivatives” (Rhone-Poulenc Agro, priority 1996, dated 2003).

Test system: termites
Assay: Soil treatment at discrete locations around a house to be built, protection against termites (Example 1)
Type: in vivo
Settings: for attack of termite observed: 1 year after building the house, 0.01 g/m^2 of soil at future corners and wall crossings, treated area 5 m per 10 m of perimeter
From the text: In an area where termites are passing or traveling, plans for a house are made. The plans are that the house will have a rectangular shape of 15 m×10 m with 4 rooms at the lower level.
Compound (A) is actually put on the soil at a rate of 0.01 g/m^2 of the soil at the location of the future corners of the house and at the crossing of the walls corresponding to each room according to the following scheme: [drawing 2]
The treated area represents 5 m per 10 m of perimeter.

SMILES	attack of termite observed	holes in parts of the walls, % of the volume (one year after building the house, similar experiment to Example 1)
CCOP(=S)(OCC)Oc1nc(Cl)c(Cl)cc1Cl [chlorpyrifos]	strong attack of termites	more than 10%
N#Cc1nn(-c2c(Cl)cc(C(F)(F)F)cc2Cl)c(N)c1[S+]([O-])C(F)(F)F (stereo not drawn) [Compound (A), 5-amino 1-(2,6-dichloro 4-trifluoromethylphenyl) 4-trifluoromethylsulfinyl 3-cyanopyrazole]	no attack of termite	
